According to patent US4269827A, “Process and composition for reducing blood pressure” (The Massachusetts General Hospital, priority 1980, dated 1981):
“And” between values parts separate entries of the source, which are not always exact repeats. Equal entries are not always repeated. Where two headings read alike, the source gives them in different places. No end group written: not given here.

Legend:
[1] = target: T1, renin (Homo sapiens, UniProt P00797); conditions: octapeptides with changed cleavage site; read-out: binding constants; cited from earlier work
T1 sequence (P00797 67-406): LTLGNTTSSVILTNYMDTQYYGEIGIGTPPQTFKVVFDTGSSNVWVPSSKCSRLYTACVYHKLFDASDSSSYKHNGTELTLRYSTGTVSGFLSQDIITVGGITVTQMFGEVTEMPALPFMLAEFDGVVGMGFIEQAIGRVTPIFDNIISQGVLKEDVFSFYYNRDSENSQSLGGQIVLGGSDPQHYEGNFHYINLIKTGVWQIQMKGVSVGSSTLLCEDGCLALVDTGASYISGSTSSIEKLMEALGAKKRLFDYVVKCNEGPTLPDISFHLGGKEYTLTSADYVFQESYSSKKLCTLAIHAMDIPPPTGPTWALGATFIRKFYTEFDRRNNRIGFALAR

[2] = target: T1, renin; test: In vitro inhibition of renin, inhibitor constant (Ki) with tetradecapeptide substrate, angiotensin I radioimmunoassay; format: biochemical; conditions: pH 7.4, read-out: inhibitory constant (Ki)
Description: The peptide being tested is dissolved in 0.01 N HCl and the pH adjusted to pH 7.5 to obtain high concentrations of peptide. The peptide solution is diluted further to appropriate concentrations with 0.1 M Tris HCL-albumin.
First, to determine Km renin (0.006 Goldblatt unit/ml) is incubated for 2 hrs. at 37° with incremental concentrations of Tetradecapeptide substrate varying between 3 and 108 μM in a volume of 160 μl at pH 7.5 in 0.1 M Tris HCl containing 0.5% albumin. The release of angiotensin I is determined by radioimmunoassay, Haber et al., J. Clin. Endocrinol. […] The cross-reaction of the tetradecapeptide with antibody is about 1% and less than 0.5% with the renin inhibitors both before and after exposure to renin.
The inhibitor constant is calculated as previously described, Poulsen et al., Scand. […] No. 132, 1, (1973), from a weighted least-squares fit of a Lineweaver-Burk plot. Each point is given a weight proportional to the initial velocity, Dowd et al, J. Biol. Chem. 240, 863, (1965).
The tetradecapeptide is a renin substrate releasing angiotensin I after cleavage between leucyl residues at positions 10 and 11.
Specific antibody is used to measure angiotensin I release from the decapeptide.
The rate of cleavage between renin and decapeptide will therefore be given by Dixon and Webb, Enzymes, New York, N.Y., Academic (1964), [formula] […]

[3] = target: T2, plasma renin activity (Homo sapiens, UniProt P00797); test: In vitro inhibition of plasma renin activity in pooled human plasma; format: biochemical; conditions: peptide in saline (1 mM) added to pooled human plasma; read-out: 50% inhibition of plasma renin activity (converted)
T2 construct: added to pooled human plasma having a plasma renin activity; from tissue; host or cells: pooled human plasma
T2 sequence (P00797 67-406): T1 sequence (P00797 67-406)
Description: The mixture is incubated for 45 min at 37° and then cooled to 0°. Complementary amounts of plasma are then added as 20 μl of a plasma dilution in 0.1 M Tris HCl (pH 7.5) containing 0.5% albumin to give the same amount of plasma protein in all tubes. Tracer and antibody (1000 μl) are then added following the radioimmunoassay procedure described by Poulsen et al, J. Clin. Endocrinol. Metab. 39, 816, (1974). Data for the standard curve is collected in the same medium kept at 4°. To determine Ki parallel series of experiments are performed in which the 10 μl Tris buffer is replaced with 10 μl of a solution containing between 2-100 μM inhibitor, respectively.
The inhibitory effect of the decapeptide in human plasma was determined as follows: human blood was drawn in ice cold tubes containing EDTA as anticoagulent and the plasma was immediately separated at 4° C. […] Substrate concentration was determined by measuring angiotensin I concentration by radioimmunoassay after incubation of plasma diluted 1:10 in the phosphate albumin buffer (pH 7.4) with 10 µl of human renin solution (0.006 GU/ml) for 1, 2, 3 and 4 hrs in order to convert renin substrate completely to angiotensin I. EDTA, BAL (2,3-dimercapto-1-propanol) and 8-hydroxyquinoline were added as angiotensinase inhibitors, Haber et al, J. Clin. Endocrinol. […]

Row | Substance | Ki [1] | Ki [2] | IC50 [3]
1 | Leu-Phe | 4 µM | – | –
2 | Leu-Tyr | 12 µM | – | –
3 | PHPFHFFVYK [I, Pro-His-Pro-Phe-His-Phe-Phe-Val-Tyr-Lys] | – | 2 µM | 45 µM and 44.7 µM
4 | Phe-Phe | 1 µM | – | –
